Values joined by “and” are separate entries in the source; they are usually repeats but may differ in a detail not shown here. Identical values can stand only once. “Also recorded” adds a separate entry of the source.
Tests used:
[1] = test system: strychnine-induced seizures; experiment: Strychnine-induced seizure model; format: in vivo, mice; conditions: for responders at 1 mg/kg: Mus musculus, read-out: Survival Rate; for responders at 1 mg/kg / Duration of Tremor and Seizures / Latency to Tremor and Seizure Onset: oral dose 1.0 mg/kg 60 min before strychnine 1.5 mg/kg s.c., N = 10; for Duration of Tremor and Seizures / Latency to Tremor and Seizure Onset: mean ± SD; for survival rate of strychnine-poisoned animals: dose not given
Description: (§1) The anticonvulsant effects of the examined substances were studied in male white mice weighing 18–22 g, divided into the following groups: control (including the strychnine and nicotine groups), carbamazepine group, Convulex group, and experimental groups (one for each tested substance). Simple randomization (“heads or tails” coin toss) was used to assign animals to groups. Each group contained 10 animals. Healthy animals were included in the experiments after a 14-day quarantine period. No animals were excluded from the study. Convulsant agents were administered subcutaneously at doses of 10.0 mg/kg for nicotine (Sigma–Aldrich, Saint Louis, MO, USA) and 1.5 mg/kg for strychnine (Sigma–Aldrich, Saint Louis, MO, USA), 60 min after the oral administration of the test substances at doses ranging from 0.1 to 10 mg/kg. The onset time, duration of tremors and seizures, and survival rate of the animals were recorded. Carbamazepine (Darnitsa, Kiev, Ukraine) at doses of 5.0–10.0 mg/kg and Convulex (valproate) (Gerot Pharmazeutika GmbH, Vienna, Austria) at doses of 75.0–100.0 mg/kg (based on the therapeutic anticonvulsant dose) were used as reference drugs.
(§2) Data were presented as mean ± SD for different groups. Statistical analysis was performed using OriginPro 9.0 (MicroCal Software, Northampton, MA, USA), with p < 0.05 considered statistically significant.

[2] = test system: tremorogenic and convulsive actions of nicotine; experiment: Nicotine-induced tremor and seizure model; format: in vivo, mice; conditions: for responders at 1 mg/kg: Mus musculus, po, read-out: Survival Rate; for Duration of Seizures / Latency to Seizure Onset: oral dose 1.0 mg/kg 60 min before nicotine 10 mg/kg s.c., mean ± SD, N = 10; for survival rate of the animals increased to: at low doses (0.1–5 mg/kg); for activity against tremorogenic and convulsive actions of nicotine versus reference drugs (in words): doses of 0.1–5 mg/kg
Description: as §1, §2

[3] = set-up: method as in PMID 36677539; conditions: per os; cited from earlier work
[4] = doses of 0.5–1 mg/kg, versus control

Row | SMILES | responders at 1 mg/kg [1] | Duration of Tremor and Seizures [1] | Latency to Tremor and Seizure Onset [1] | responders at 1 mg/kg [2] | Duration of Seizures [2] | Latency to Seizure Onset [2] | LD50 [3] | survival rate of strychnine-poisoned animals [1] | increase of animal survival ([1]; doses of 0.5–1 mg/kg) | extension of the latency period for seizures [1, 4] | reduction of seizure duration [1, 4] | activity against strychnine-induced seizures (in words) ([1]; ranking within the series) | survival rate of the animals increased to [2] | activity against tremorogenic and convulsive actions of nicotine versus reference drugs (in words) [2] | survival of poisoned animals compared to carbamazepine and valproate (in words) ([2]; mouse, in vivo)
1 | COc1ccc(C2NCCc3cc(OC)c(OC)cc32)cc1 (centres unmarked) [Compound 5, 1-(4′-Methoxyphenyl)-6,7-dimethoxy-1,2,3,4-tetrahydroisoquinoline] | 60% | 0.54 ± 0.7 min | 16.5 ± 1.8 min | 80% | 10.3 ± 0.6 min | 2.1 ± 0.09 min | 1040.3 (986.0 ± 1079.8) mg/kg | – | – | – | – | – | – | – | –
2 | COc1cc2c(cc1OC)C(c1cc(OC)c(OC)cc1[N+](=O)[O-])NCC2 (centres unmarked) [Compound 26, 1-(4′,5′-Dimethoxy-2′-nitrophenyl)-6,7-dimethoxy-1,2,3,4-tetrahydroisoquinoline] | 40% | 0.51 ± 0.8 min | 16.7 ± 1.2 min | 80% | 10.8 ± 0.4 min | 2.6 ± 0.03 min | 524.5 (501.3 ± 547.7) mg/kg | – | – | – | – | – | – | – | –
3 | COc1cc(Br)c(C2NCCc3cc(OC)c(OC)cc32)cc1OC (centres unmarked) [Compound 25, 1-(2′-Bromo-4′,5′-dimethoxyphenyl)-6,7-dimethoxy-1,2,3,4-tetrahydroisoquinoline] | 90% | 0.14 ± 0.6 min | 16.5 ± 1.5 min | 90% | 9.0 ± 0.9 min | 2.2 ± 0.04 min | 272.1 (249.1 ± 295.6) mg/kg | 90% | 90% | 30–100% | 3.7–4 times | most active; also recorded: highest activity | 90–100% | comparable activity to the reference drugs | –
4 | COc1cc2c(cc1OC)C(c1ccc(OC)c(O)c1Br)NCC2 (centres unmarked) [Compound 27, 1-(2′-Bromo-3′-hydroxy-4′-methoxyphenyl)-6,7-dimethoxy-1,2,3,4-tetrahydroisoquinoline] | 40% | 0.53 ± 0.3 min | 10.5 ± 1.5 min | 90% | 9.7 ± 0.9 min | 2.2 ± 0.02 min | 4700 mg/kg and 4937 mg/kg and 4937.4 (4827.7 ± 5084.9) mg/kg | – | – | – | – | – | 90–100% | comparable activity to the reference drugs | did not improve the survival
5 | COc1cc2c(cc1OC)C(c1ccccc1Br)NCC2 (centres unmarked) [Compound 13, 1-(2′-Bromophenyl)-6,7-dimethoxy-1,2,3,4-tetrahydroisoquinoline] | 40% | 0.31 ± 0.7 min | 10.5 ± 1.3 min | 50% | 5.0 ± 0.7 min | 2.2 ± 0.03 min | 315.8 (281.2 ± 345.2) mg/kg | no more than 40% | – | – | – | – | – | – | –
6 | COc1cc2c(cc1OC)C(c1ccccc1N)NCC2 (centres unmarked) [Compound 32, 1-(2′-Aminophenyl)-6,7-dimethoxy-1,2,3,4-tetrahydroisoquinoline] | 50% | 0.34 ± 0.4 min | 18.2 ± 1.7 min | 60% | 12.2 ± 0.8 min | 1.8 ± 0.06 min | 366.3 (326.3 ± 395.6) mg/kg | – | – | – | – | – | – | – | –

Source: PMC12472494, “Anticonvulsant Potential of 1-Aryl-6,7-dimethoxy-1,2,3,4-tetrahydroisoquinolines: Insights from Strychnine and Nicotine Models in In Vivo and In Silico Studies” (Pharmaceuticals, 2025)
